Data taken from publication PMC8750630, “Novel Molecular Targets for Hepatocellular Carcinoma” (Cancers, 2021).

These sequences were tested on CD8+ T cells (assay: pMHC multimer staining of PBMCs for epitope-specific CD8+ T cells). Conditions: HLA-A*02:01 multimers, PBMCs from 4 HCC patients and 3 healthy donors, average.
Assay type: cell-based, human
Protocol: pMHC complexes were generated by combining purified disulfide-stabilized HLA A*0201 monomer (100 μg/mL) with 100 μM peptide for 30 min in PBS at room temperature. Then, pMHC complexes were centrifuged for 5 min at 3300× g to sediment any aggregated MHC molecules. For each 100 μL pMHC, 9.02 μL (0.2 mg/mL stock, SA-PE (BioLegend, 405204), SA-APC (BioLegend, 405207), SA-PE/Cy7 (BioLegend, 405206), SA-PE-CF594 (BD, 562284)), or 18.04 μL (0.1 mg/mL stock, SA-BV421 (BioLegend, 405226), SA-BV650 (BioLegend, 405231) streptavidin conjugate was added and incubated for 30 min on ice. D-biotin (Sigma-Aldrich, St.Louis, MO, USA) was added at a final concentration of 25 μM to block any free binding sites and multimers were stored at −20 °C with 5% glycerol and 0.5% BSA. To stain for T-cell reactivity, PBMCs from 4 HCC patients and 3 healthy donors (2–5 × 10^6) were incubated with a pool of pMHC multimers (3 μL/multimer) and dasatinib (50 nM final, LC laboratories, D-3307) for 15 min at 37 °C. Cells were then stained with antibodies CD3-FITC (1:40, BD, 345763) and CD8-BV480 (1:100, BD, 566121) and LIVE/DEAD Fixable Near-IR (1:1000, Invitrogen, Waltham, MA, USA L10119) for 30 min on ice and washed twice in FACS buffer (PBS + 2% FCS). Gating for CD3^+/CD8^+ T cells was performed on live cells, and binding to pMHCs was assessed by measuring specific fluorescence associated with each individual pMHC. Samples were acquired on a flow cytometer (LSRFortessa, BD, Franklin Lakes, NJ, USA).

In order of rising “percentage of CD8+ T cells reacting with the peptide” value:
1. MLAGNEFQV  0.32%
2. MLAGNAFTA  0.46%
3. LLGPQLVLL  0.55%
4. ALLALTSAV  0.88%
